These results are taken from patent publication US20130012466A1 (priority 2006, published 2013).

“Also recorded” adds a separate entry of the source. Read-outs that look alike come from different tables or passages of the source. Bounds are passed on as bounds.

One data set concerns Du145. Description: Cytotoxicity assay (cell titer-glo and calcein AM), Du145. Particulars: Du145, % error in parentheses.
Another data set relates to SF-268. Description: Cytotoxicity assay (cell titer-glo and calcein AM), SF-268. Particulars: SF-268, % error in parentheses.
For the next data set, the system named is ADR-RES. Description: Cytotoxicity assay (cell titer-glo and calcein AM), ADR-RES. As to conditions: NCI/ADR RES, % error in parentheses.
In data set [1] the test system is nine human cancer cell lines and one normal mouse control cell line. The experiment in a line: Cytotoxicity screen across the whole cell line panel. The class given is cell-based.
A further data set deals with tubulin. The experiment in a line: In vitro tubulin polymerization assay (fluorescence-based). Particulars: for effect on tubulin polymerization / microtubules: tested in duplicate on at least two days. The class given is biochemical. Also noted: key to tubulin polymeriz.: ‘D’ designates destabilizer; ‘S’ designates stabilizer.
The test system of data set [2] is mouse mammary normal epithelial control cell line. The experiment in a line: Cytotoxicity assay, normal control cell line.
A further data set relates to A549. Description: Cytotoxicity assay (cell titer-glo and calcein AM), A549. Particulars: A549, % error in parentheses.
The subject of a further data set is Hep3B. The experiment in a line: Cytotoxicity assay (cell titer-glo and calcein AM), Hep3B. As to conditions: Hep 3B, % error in parentheses.
In another data set the test system is SK-OV-3. Description: Cytotoxicity assay (cell titer-glo and calcein AM), SK-OV-3. As to conditions: SK-OV-3, % error in parentheses.
Another data set deals with NCI-H460. The experiment in a line: Cytotoxicity assay (cell titer-glo and calcein AM), NCI-H460. Particulars: NCI-H460, % error in parentheses.
The next data set relates to MCF7. The experiment in a line: Cytotoxicity assay (cell titer-glo and calcein AM), MCF7.
The subject of data set [3] is A549 cells. Description: Drug combination study with colchicine (Chou-Talalay combination index). Particulars: for plus colchicine, mean CI / plus colchicine, median CI: combination index, colchicine held at IC10, A549 cells; for interaction with colchicine: drug combination, A549 cells, Chou-Talalay.
Procedure: (§1) Ten thousand A549 cells per well were plated in triplicate in 96 well black tissue culture treated plates. Cells were incubated for one hour at 37° C. to allow cells to attach.
(§2) All synergy experiment results were replicated at least three times and the overall effects analyzed by averaging all combination indexes generated if the fraction affected was greater than 0.2.
The test system of data set [4] is A549 cells. Description: Drug combination study with paclitaxel (Chou-Talalay combination index).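 As to all read-outs here: combination indexes averaged only over points where fraction affected exceeded 0.2, with each synergy experiment repeated at least three times.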 As to conditions: for synergy (paclitaxel): combination index class, combination with paclitaxel, Chou-Talalay method; for plus paclitaxel, mean CI / plus paclitaxel, median CI: combination index, paclitaxel held at IC10, A549 cells; for interaction with paclitaxel/taxol: drug combination, A549 cells, Chou-Talalay.
Procedure: as §1, §2

Data set [5] is described as follows: Precipitation in assay media. The class given is physicochemical. As to conditions: cell culture media / assay.
[6] abbreviates: read-out: Cytotoxicity IC50, Du145, CTG, CTG (cell titer-glo) readout.
Setting [7] is: read-out: Cytotoxicity IC50, SF-268, CTG, CTG (cell titer-glo) readout.
[8] abbreviates: read-out: Cytotoxicity IC50, NCI/ADR RES, CTG, CTG (cell titer-glo) readout.
The mark [9] stands for this setting: read-out: Cytotoxicity IC50, NmuMG, CTG, CTG (cell titer-glo) readout, % error in parentheses.
Where [10] appears, read: read-out: Cytotoxicity IC50, NmuMG, calcein, calcein AM readout, % error in parentheses.
The mark [11] stands for this setting: read-out: Cytotoxicity IC50, A549, CTG, CTG (cell titer-glo) readout.
The mark [12] stands for this setting: read-out: Cytotoxicity IC50, A549, calcein, calcein AM readout.
The mark [13] stands for this setting: read-out: Cytotoxicity IC50, Du145, calcein, calcein AM readout.
[14] abbreviates: read-out: Cytotoxicity IC50, Hep 3B, CTG, CTG (cell titer-glo) readout.
The mark [15] stands for this setting: read-out: Cytotoxicity IC50, Hep 3B, calcein, calcein AM readout.
Where [16] appears, read: read-out: Cytotoxicity IC50, SF-268, calcein, calcein AM readout.
Where [17] appears, read: read-out: Cytotoxicity IC50, SK-OV-3, CTG, CTG (cell titer-glo) readout.
[18] abbreviates: read-out: Cytotoxicity IC50, SK-OV-3, calcein, calcein AM readout.
Setting [19] is: read-out: Cytotoxicity IC50, NCI/ADR RES, calcein, calcein AM readout.
Setting [20] is: read-out: Cytotoxicity IC50, NCI-H460, CTG, CTG (cell titer-glo) readout.
[21] abbreviates: read-out: Cytotoxicity IC50, NCI-H460, calcein, calcein AM readout.
[22] abbreviates: read-out: Cytotoxicity IC50, MCF7, CTG, CTG (cell titer-glo) readout, % error in parentheses.
The mark [23] stands for this setting: read-out: Cytotoxicity IC50, MCF7, calcein, calcein AM readout, % error in parentheses.

Consider `COc1cc2c(c(OC)c1OC)-c1ccc(OC)c(=O)cc1[C@@H](NC(C)=O)CC2` [colchin], for which the IC50 is 153 nM with HCT-116, 169 nM with Du145 (setting [6]), 67 nM with SF-268 (setting [7]) and 18 nM in the data set on ADR-RES (setting [8]).
Take D-glucorono-6,3-lactonide [Col45]: the IC50 in [1] (cell lines other than ADR-Res, SF-268 and HCT-116, read-out: potencies (IC50) in all other cell lines examined) was more than 900 nM; in [2] (setting [9]), 1460 nM; in data set [2] (setting [10]), more than 10000 nM; in the data set on A549 (setting [11]), 1100 nM; with A549 (setting [12]), 1060 nM; with Du145 (setting [6]), 1140 nM. The IC50 was 939 nM with Du145 (setting [13]); 793 nM with Hep3B (setting [14]); 962 nM in the data set on Hep3B (setting [15]); 398 nM in the data set on SF-268 (setting [7]); 462 nM with SF-268 (setting [16]); 836 nM with SK-OV-3 (setting [17]). For the same compound, the IC50 with SK-OV-3 (setting [18]) is 887 nM; in the data set with ADR-RES (setting [8]), 1140 nM; in the data set with ADR-RES (setting [19]) it was 403 nM; in the data set on NCI-H460 (setting [20]), 775 nM; in the data set on NCI-H460 (setting [21]), 1020 nM; in the data set with MCF7 (setting [22]), 760 nM. Further, the IC50 with MCF7 (setting [23]) was 679 nM. The tubulin polymeriz. result in the data set with tubulin was “D”. The “effect on tubulin polymerization / microtubules” value in the data set with tubulin is given as “destabilizing; also recorded: destabilized microtubules”. Moreover, the “plus colchicine, mean CI” value with A549 cells [3] came to 107.40. Moreover, in the data set with A549 cells [3], the “plus colchicine, median CI” value came to 102.90. The “interaction with colchicine” value in the data set with A549 cells [3] is “strong antagonism”. Besides, the “synergy (paclitaxel)” value with A549 cells [4] is on record as “++++ (strong synergism, Cl 0.1-0.3)”. For the same compound, the “plus paclitaxel, mean CI” value in the data set on A549 cells [4] was determined as 0.12. The “plus paclitaxel, median CI” value in the data set with A549 cells [4] is 0.07. Further, the “interaction with paclitaxel/taxol” value in the data set with A549 cells [4] is given as “strong synergism”.
On to `COc1cc2c(c(OC)c1OC)-c1ccc(OC)c(=O)cc1C(NC(=O)CN(OC)C1OC(COCc3ccccc3)C(OCc3ccccc3)C1OCc1ccccc1)CC2` (centres unmarked) [Col53], for which the precipitation result in data set [5] is “precipitation in cell culture media; also recorded: precipitated”. The IC50 in data set [2] (setting [9]) is 120 nM; in data set [2] (setting [10]), 392 nM; in the data set on A549 (setting [11]) it was 48 nM; with A549 (setting [12]), 62 nM; with Du145 (setting [6]), 41 nM; in the data set with Du145 (setting [13]) it was 32 nM. Also, the IC50 was 47 nM in the data set on Hep3B (setting [14]); 69 nM in the data set with Hep3B (setting [15]); 37 nM with SF-268 (setting [7]); 18 nM with SF-268 (setting [16]); 42 nM in the data set with SK-OV-3 (setting [17]); 36 nM with SK-OV-3 (setting [18]). In addition, the IC50 is 46 nM in the data set on ADR-RES (setting [8]); 37 nM with ADR-RES (setting [19]); 41 nM with NCI-H460 (setting [20]); 71 nM in the data set on NCI-H460 (setting [21]); 49 nM in the data set on MCF7 (setting [22]); 39 nM in the data set on MCF7 (setting [23]).
With `COc1cc2c(c(OC)c1OC)-c1ccc(OC)c(=O)cc1[C@@H](NC(=O)CN(OC)[C@@H]1O[C@H](CO)[C@@H](O[C@H]3O[C@H](CO)[C@@H](O[C@H]4O[C@H](CO)[C@@H](O)[C@H](O)[C@H]4O)[C@H](O)[C@H]3O)[C@H](O)[C@H]1O)CC2` [Col13, maltotrioside], the IC50 (in the data set on HCT-116; in data set [2] (setting [9]); in data set [2] (setting [10]); with A549 (setting [11]); in the data set with A549 (setting [12]); with Du145 (setting [6])) was more than 10000 nM throughout. The IC50 in the data set with Du145 (setting [13]), in the data set on Hep3B (setting [14]), in the data set with Hep3B (setting [15]), in the data set with SF-268 (setting [7]), in the data set on SF-268 (setting [16]) and in the data set on SK-OV-3 (setting [17]) was more than 10000 nM each time. Moreover, the IC50 in the data set on SK-OV-3 (setting [18]) was more than 10000 nM; with ADR-RES (setting [8]) it was more than 10000 nM; in the data set on ADR-RES (setting [19]), more than 10000 nM; in the data set on NCI-H460 (setting [20]) it was more than 10000 nM; in the data set with NCI-H460 (setting [21]) it was 2580 nM; with MCF7 (setting [22]), 9860 nM. In the data set with MCF7 (setting [23]), the IC50 is more than 10000 nM.
On to 2-deoxy-L-riboside [Col19], for which the “reduction in potency relative to (1)” value in [1] (versus parent colchicine) is approximately 10 fold. The tubulin polymeriz. result with tubulin is “S”. Also, the “effect on tubulin polymerization / microtubules” value in the data set with tubulin is “stabilizing; also recorded: stabilized the microtubules”. For the same compound, the IC50 in [2] (setting [9]) is 2910 nM; in [2] (setting [10]), 2850 nM; in the data set on A549 (setting [11]), 376 nM; in the data set on A549 (setting [12]), 636 nM; in the data set on Du145 (setting [6]), 369 nM; with Du145 (setting [13]), 262 nM. Also, the IC50 in the data set on Hep3B (setting [14]) is 376 nM; with Hep3B (setting [15]) it was 437 nM; in the data set on SF-268 (setting [7]), 284 nM; with SF-268 (setting [16]), 575 nM; in the data set on SK-OV-3 (setting [17]), 240 nM; with SK-OV-3 (setting [18]) it was 538 nM. For the same compound, the IC50 is 359 nM in the data set with ADR-RES (setting [8]); 315 nM in the data set on ADR-RES (setting [19]); 415 nM in the data set with NCI-H460 (setting [20]); 191 nM in the data set with NCI-H460 (setting [21]); 916 nM in the data set on MCF7 (setting [22]); 2820 nM with MCF7 (setting [23]). In addition, the “plus colchicine, mean CI” value with A549 cells [3] was 0.54. Further, the “plus colchicine, median CI” value with A549 cells [3] stood at 0.50. In addition, the “interaction with colchicine” value in the data set with A549 cells [3] was “synergism”. Further, in the data set on A549 cells [4], the “synergy (paclitaxel)” value is listed as “— (moderate antagonism, Cl 1.2-1.45)”. Also, the “plus paclitaxel, mean CI” value in the data set with A549 cells [4] is reported as 43.20. The “plus paclitaxel, median CI” value in the data set with A549 cells [4] was 13.40. The “interaction with paclitaxel/taxol” value in the data set on A549 cells [4] is “antagonism”.
